According to patent US20260206764A1, “AN HERBICIDAL COMBINATION, COMPOSITION AND METHOD OF CONTROLLING WEEDS USING THE SAME” (priority 2023, published 2026):

Assays:
[1] = tested on: Viola arvensis, Bromus spp., Lolium spp., Agropyron repens and Urtica urens; conditions: reported by Hoechst et al., 1991; cited from earlier work
[2] = tested on: Brachiaria decumbens; assay: Greenhouse post-emergence herbicidal efficacy, % weed control; assay type: in vivo
Excerpt: (§1) This effectiveness of all treatments can be evaluated according to Colby's equation. In the Colby's equation given below, E is the expected efficacy of combination of L-glufosinate, salts, esters, or combinations thereof, and an herbicide of the phenoxypropionic herbicide class, • X is the observed efficacy of L-glufosinate, salts, esters, or combinations thereof and • Y is the observed efficacy of the herbicide of the phenoxypropionic herbicide class.
(§2) Observed efficacy values i.e. X and Y are % weed control for L-glufosinate, salts, esters, or combinations thereof and an herbicide of the phenoxypropionic herbicide class. If observed efficacy of combination of L-glufosinate, salts, esters, or combinations thereof and the herbicide of the phenoxypropionic herbicide class is greater than its expected efficacy, then combination is determined to be synergistic. If observed efficacy is equal to or less than expected efficacy, then combination is determined to be non-synergistic.
(§3) Methodology: Greenhouse trials were carried out to evaluate the efficacy of the combination of L-glufosinate ammonium and phenoxypropionic herbicides—haloxyfop, quizalofop-ethyl, quizalofop-P-tefuryl—on weeds Eleusine indica, Brachiaria decumbens, Spermacoce latifolia and Glycine max.
(§4) The soil used was sandy clay loam-Sand: 68.0%; Silt: 8.0%; Clay: 24.0%.
(§5) All treatments were in 4 replications per treatment with a spray volume of […].
(§6) The expected efficacy of a combination of L-glufosinate and the other herbicides was calculated using the well-established Colby method. Any difference between the observed and “expected” efficacy could be attributed to synergy between the two compounds. (Colby, S. R., Weeds, 1967 (15), p. 20-22).
Experiment was conducted to assess the efficacy herbicidal combination comprising L-glufosinate ammonium (glufosinate-p-ammonium) and haloxyfop to control the weed, Brachiaria decumbens.
The percentage efficacy was calculated after 7, 14 days of application (DAA). The target weed was Brachiaria decumbens, and the concentration of the herbicide and the results are recorded in the table 1 below:
Experiment was conducted to assess the efficacy herbicidal combination comprising L-glufosinate ammonium (glufosinate-p-ammonium) and quizalofop-ethyl to control the weed, Brachiaria decumbens.
The percentage efficacy was calculated after 28 and 35 days of application (DAA). The target weed was Brachiaria decumbens, and the concentration of the herbicide and the results are recorded in the table 2 below:
Experiment was conducted to assess the efficacy herbicidal combination comprising L-glufosinate ammonium (glufosinate-p-ammonium) and quizalofop-P-tefuryl to control the weed, Brachiaria decumbens.
The percentage efficacy was calculated after 14, 21, 28, 35 days of application (DAA). The target weed was Brachiaria decumbens, and the concentration of the herbicide and the results are recorded in the table 3 below: […]

[3] = tested on: Eleusine indica; assay: as above; assay type: in vivo; conditions: for Control %: Table 6, L-glufosinate ammonium 150, quizalofop-p-tefuryl 25 g/ha
Excerpt: as §1, §2, §3, §4, §5, §6
Experiment was conducted to assess the efficacy herbicidal combination comprising L-glufosinate ammonium (glufosinate-p-ammonium) and haloxyfop to control the weed, Eleusine indica.
The percentage efficacy was calculated after 7 days of application (DAA). The target weed was Eleusine indica, and the concentration of the herbicide and the results are recorded in the table 4 below:
Experiment was conducted to assess the efficacy herbicidal combination comprising L-glufosinate ammonium (glufosinate-p-ammonium) and quizalofop-ethyl to control the weed, Eleusine indica.
The percentage efficacy was calculated after 21 days of application (DAA). The target weed was Eleusine indica, and the concentration of the herbicide and the results are recorded in the table 5 below:
Experiment was conducted to assess the efficacy herbicidal combination comprising L-glufosinate ammonium (glufosinate-p-ammonium) and quizalofop-P-tefuryl to control the weed, Eleusine indica.
The percentage efficacy was calculated after 21, 28, 35 days of application (DAA). The target weed was Eleusine indica, and the concentration of the herbicide and the results are recorded in the table 6 below: […]

[4] = tested on: Spermacoce latifolia; assay: as above; assay type: in vivo; conditions: Table 7, L-glufosinate ammonium 150, haloxyfop 50 g/ha
Excerpt: as §1, §2, §3, §4, §5, §6
Experiment was conducted to assess the efficacy herbicidal combination comprising L-glufosinate ammonium (glufosinate-p-ammonium) and haloxyfop to control the weed, Spermacoce latifolia.
The percentage efficacy was calculated after 7, 14, 21, 28, 35 days of application (DAA). The target weed was Spermacoce latifolia, and the concentration of the herbicide and the results are recorded in the table 7 below: […]

[5] = tested on: Glycine max; assay: as above; assay type: in vivo; conditions: for % control: Table 8, L-glufosinate ammonium 150, haloxyfop 50 g ai/ha
Excerpt: as §1, §2, §3, §4, §5, §6
Experiment was conducted to assess the efficacy herbicidal combination comprising L-glufosinate ammonium (glufosinate-p-ammonium) and haloxyfop to control the weed, Glycine max.
The percentage efficacy was calculated after 3, 7, 14, 21, 28, 35 days of application (DAA). The target weed was Glycine max, and the concentration of the herbicide and the results are recorded in the table 8 below:
Experiments were conducted to assess the efficacy of herbicidal combination comprising L-glufosinate ammonium (glufosinate-p-ammonium) and quizalofop-ethyl to control the weedy Glycine max.
The percentage efficacy was calculated after 3, 28 and 35 days of applications (DAA). The target weed was Glycine max, and the concentration of the herbicide and the results are recorded in the table 9 below:
Experiments were conducted to assess the efficacy of herbicidal combination comprising L-glufosinate ammonium (glufosinate-p-ammonium) and quizalofop-p-tefuryl to control the weedy Glycine max.
The percentage efficacy was calculated after 3, 28 and 35 days of applications (DAA). The target weed was Glycine max, and the concentration of the herbicide and the results are recorded in the table 10 below.

[6] = Table 1, 7 DAA, L-glufosinate ammonium 150, haloxyfop 50 g a.i./ha
[7] = Table 1, 14 DAA, L-glufosinate ammonium 150, haloxyfop 50 g a.i./ha
[8] = Table 4, 7 DAA, L-glufosinate ammonium 150, haloxyfop 50 g ai/ha
[9] = Table 2, 28 DAA, L-glufosinate ammonium 150, quizalofop-ethyl 25 g a.i./ha
[10] = Table 2, 35 DAA, L-glufosinate ammonium 150, quizalofop-ethyl 25 g a.i./ha
[11] = Table 3, 14 DAA, L-glufosinate ammonium 150, quizalofop-p-tefuryl 25 g/ha
[12] = Table 3, 21 DAA, L-glufosinate ammonium 150, quizalofop-p-tefuryl 25 g/ha
[13] = Table 3, 28 DAA, L-glufosinate ammonium 150, quizalofop-p-tefuryl 25 g/ha
[14] = Table 3, 35 DAA, L-glufosinate ammonium 150, quizalofop-p-tefuryl 25 g/ha
[15] = Table 5, 21 DAA, L-glufosinate ammonium 150, quizalofop-ethyl 25 g ai/ha
[16] = Table 9, 3 DAA, L-glufosinate ammonium 150, quizalofop-ethyl 25 g/ha
[17] = Table 9, 28 DAA, L-glufosinate ammonium 150, quizalofop-ethyl 25 g/ha
[18] = Table 9, 35 DAA, L-glufosinate ammonium 150, quizalofop-ethyl 25 g/ha
[19] = Table 10, 3 DAA, L-glufosinate ammonium 150, quizalofop-p-tefuryl 25 g/h
[20] = Table 10, 28 DAA, L-glufosinate ammonium 150, quizalofop-p-tefuryl 25 g/h
[21] = Table 10, 35 DAA, L-glufosinate ammonium 150, quizalofop-p-tefuryl 25 g/h

Row | SMILES | Control % [2, 6] [%] | Control % [2, 7] [%] | % control [3, 8] [%] | Control % ([4]; 7 DAA) [%] | Control % ([4]; 14 DAA) [%] | Control % ([4]; 21 DAA) [%] | Control % ([4]; 28 DAA) [%] | Control % ([4]; 35 DAA) [%] | % control ([5]; 3 DAA) [%] | % control ([5]; 7 DAA) [%] | % control ([5]; 14 DAA) [%] | % control ([5]; 21 DAA) [%] | % control ([5]; 28 DAA) [%] | % control ([5]; 35 DAA) [%] | Control % [2, 9] [%] | Control % [2, 10] [%] | Control % [2, 11] [%] | Control % [2, 12] [%] | Control % [2, 13] [%] | Control % [2, 14] [%] | other results
1 | CP(=O)(O)CCC(N)C(=O)O (racemic) [glufosinate, DL-homoalanin-4-yl(methyl)phosphinic acid] | – | – | – | – | – | – | – | – | – | – | – | – | – | – | – | – | – | – | – | – | control of weed species [1]: either not combated, or only weakly combated
2 | CC(Oc1ccc(Oc2ncc(C(F)(F)F)cc2Cl)cc1)C(=O)O (stereo not shown) [Haloxyfop, haloxyfop] | 26.7 | 75.3 | 25 | 8 | 8.7 | 10 | 31 | 9.3 | 5 | 13.3 | 15 | 12.3 | 12.3 | 12.3 | – | – | – | – | – | – | –
3 | CP(=O)(O)CC[C@H](N)C(=O)O.N [L-glufosinate ammonium, ammonium (2S)-2-amino-4-(methylphosphinato)butyric acid] | 50 | 79.3 | 50.7 | 31.7 | 81.7 | 83.3 | 83.3 | 83.3 | 15 | 53.3 | 71 | 66.7 | 56.7 | 41.7 | 60 | 55 | 75 | 70 | 60 | 55 | % control [3, 15]: 35%; Control % ([3]; 21 DAA): 25%; Control % ([3]; 28 DAA): 20%; Control % ([3]; 35 DAA): 18%; Control % [5, 16]: 50%; Control % [5, 17]: 40%; Control % [5, 18]: 40%; Control % [5, 19]: 50%; Control % [5, 20]: 60%; Control % [5, 21]: 55%
4 | CCOC(=O)C(C)Oc1ccc(Oc2cnc3cc(Cl)ccc3n2)cc1 (stereo not shown) [quizalofop-ethyl] | – | – | – | – | – | – | – | – | – | – | – | – | – | – | 35 | 30 | – | – | – | – | % control [3, 15]: 95%; Control % [5, 16]: 0%; Control % [5, 17]: 0%; Control % [5, 18]: 0%
5 | C[C@@H](Oc1ccc(Oc2cnc3cc(Cl)ccc3n2)cc1)C(=O)OCC1CCCO1 (stereo partly shown) [quizalofop-p-tefuryl] | – | – | – | – | – | – | – | – | – | – | – | – | – | – | – | – | 20 | 10 | 5 | 5 | Control % ([3]; 21 DAA): 10%; Control % ([3]; 28 DAA): 5%; Control % ([3]; 35 DAA): 5%; Control % [5, 19]: 0%; Control % [5, 20]: 0%; Control % [5, 21]: 0%
